Laboratory results published in PMC5393024, “Discovery and characterization of natural tropolones as inhibitors of the antibacterial target CapF from Staphylococcus aureus” (Scientific Reports, 2015).
Read-outs that look alike come from different tables or passages of the source.

What was measured:
[1] = molecular target: holo-CapF (reconstituted with Zn^2+) (Staphylococcus aureus, UniProt A0A0H3JP37); assay: ITC binding to CapF reconstituted with Zn2+ (holo-CapF)
From the text: Because tropolone and its analogs have been described as metal chelators in proteins, we anticipated that binding of the inhibitor to CapF is governed by the Zn^2+ ion present in the cupin domain[12]. To confirm this hypothesis, we performed two different types of experiments. First, we determined the binding properties of 3-isopropenyl-tropolone to apo-CapF (i.e. Zn^2+-depleted CapF) and to holo-CapF (reconstituted with Zn^2+) by isothermal titration calorimetry (ITC). The stoichiometry is consistent with a 1:1 binding model.
Figure 3 Binding of 3-isopropenyl-tropolone to CapF requires Zn^2+. CapF (150 μM) reconstituted with Zn^2+ was titrated with 1.65 mM inhibitor in the absence (a) or the presence (b) of 1 mM EDTA. The upper panels correspond to the titration data, and the lower panels to the integrated binding isotherms. (c) Binding competition assay. CapF (1.0 μM) reconstituted with Zn^2+ in the presence of the Zn^2+-sensitive dye FluoZin-3 (1.0 μM) was titrated with 3-isopropenyl-tropolone (λEX = 490 nm; λEM = 520 nm).
Binding constants and thermodynamic parameters of the interaction between CapF and fragment compounds were determined with an iTC200 instrument (GE Healthcare) at 25 °C. Samples were equilibrated in a buffer composed of 10 mM HEPES (pH 7.4) and 150 mM NaCl supplemented with 5% (v/v) DMSO. CapF at 150–270 μM was titrated with compounds at 0.5–1.65 mM. Analysis of the data was performed with ORIGIN7 using a one-site binding model.
Figure S8. Binding isotherms of compounds with CapF as determined by ITC. (a) tropone, (b) 2-Cl-tropone, (c) tropolone, (d) 4-isopropyl-tropolone. Concentration of CapF in the cell was 150 µM, except in panel (a) where it was 270 µM. Concentration of compounds was 1.65 mM, except in panel (a) where it was 0.5 mM. Titrations were performed in an iTC200 instrument at 25 °C.
Data analysis was carried out with ORIGIN.

CapF [2] = assay: NADPH consumption assay (absorbance at 340 nm); type: biochemical, Staphylococcus aureus; details: 0.02 μM CapF, 1.0 μM CapE, 125 μM UDP-D-GlcNAc, 250 μM NADPH, 37 °C
Protocol: A second assay monitoring the consumption of NADPH corroborates the inhibitory effect of 3-isopropenyl-tropolone (Fig. 2c). This assay is sensitive to the NADPH consumed by the SDR domain during the second reaction catalyzed by CapF (reduction step). […] Nevertheless, additional experiments were required to corroborate that idea (see below).
The enzymatic performance of CapF was evaluated by examining the consumption of NADPH spectrophotometrically, or by monitoring the disappearance of substrate and the formation of product by HPLC[9][12]. First, the time-dependent consumption of NADPH (monitored from a decrease of adsorption at 340 nm) was carried out in 384-well plates at a final volume of 50 μL. The solution contained 1.0 μM CapE, 0.02 μM CapF, 125 μM UDP-D-GlcNAc (substrate), 250 μM NADPH and fragment compounds at various concentrations in HBS supplemented with 0.005% (v/v) Tween-20 and 5% (v/v) DMSO. Each reaction mixture was incubated at 37 °C and the absorption at 340 nm was measured with a plate reader (PHERAstar, BMG Labtech, Durham, NC).
Figure S7. (a) Structure of compounds employed. (b-d) Time course of NADPH consumption by CapF in the presence of (b) tropolone, (c) 4-isopropyl-tropolone, and (d) 2-Cl-tropone. Increasing the concentration of compounds decreases the rate of consumption of NADPH. (e-g) Inhibition after two hours for (e) tropolone, (f) 4-isopropyl-tropolone, and (g) 2-Cl-tropone. Concentration of CapE and CapF was 1.0 µM and 0.02 µM, respectively. Concentration of NADPH and UDP-D-GlcNAc was 250 µM and 125 µM, respectively. The change of absorbance was calculated with respect to a control assay in the absence of CapF.
(1 picture or pasted object on this page, not shown here)

CapF [3] = details: cited from earlier work

Sequence of holo-CapF (reconstituted with Zn^2+) (A0A0H3JP37 entry or part of it): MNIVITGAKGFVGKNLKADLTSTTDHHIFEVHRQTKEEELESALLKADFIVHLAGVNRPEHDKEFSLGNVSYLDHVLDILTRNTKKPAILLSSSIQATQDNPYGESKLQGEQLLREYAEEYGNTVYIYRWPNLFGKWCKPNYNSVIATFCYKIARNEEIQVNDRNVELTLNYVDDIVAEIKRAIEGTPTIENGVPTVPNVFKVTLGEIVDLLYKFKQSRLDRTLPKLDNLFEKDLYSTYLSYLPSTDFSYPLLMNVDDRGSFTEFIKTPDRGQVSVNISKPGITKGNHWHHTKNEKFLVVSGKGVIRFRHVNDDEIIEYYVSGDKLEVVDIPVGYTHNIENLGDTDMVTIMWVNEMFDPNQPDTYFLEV

Q: Which results are given for `O=c1cccccc1Cl` [2-Cl-tropone]?
A: binding to CapF by ITC ([1]; ITC, 25 °C): not detected; inhibition of NADPH consumption (CapF [2]): did not significantly inhibit

Q: For `CC(C)c1cccc(=O)c(O)c1` [4-isopropyl-tropolone], which Kd ([1]; ITC, 25 °C, 10 mM HEPES pH 7.4, 150 mM NaCl, 5% DMSO, one-site model, read-out: KD) is on record?
A: 1800 µM

Q: And the Kd ([1]; ITC, 25 °C, read-out: KD)?
A: 1800 µM

Q: And the “n (binding stoichiometry)” value ([1]; ITC, stoichiometry was fixed to n = 1 in the fit)?
A: 1.0

Q: What about the “inhibition of NADPH consumption” value (CapF [2]) of the same compound?
A: inhibited the consumption of NADPH in a concentration-dependent basis

Q: Which Kd [1] does the source give for `O=c1cccccc1O` [tropolone] here?
A: 38 ± 7 µM

Q: And the “n (binding stoichiometry)” value ([1]; ITC, 25 °C)?
A: 1.1 ± 0.2

Q: And the “ΔH°” value ([1]; ITC, 25 °C)?
A: -2.9 ± 0.8 kcal/mol

Q: What about the “−TΔS°” value ([1]; ITC, 25 °C) of the same compound?
A: -3.2 ± 1.0 kcal/mol

Q: And the “ligand efficiency (LE = −ΔG/HAC)” value ([1]; from ITC binding free energy)?
A: 0.67 kcal/mol

Q: What about the “inhibition of NADPH consumption” value (CapF [2]) of the same compound?
A: inhibited the consumption of NADPH in a concentration-dependent basis

Q: For `O=c1cccccc1` [tropone], which “binding to CapF by ITC” value ([1]; ITC, 25 °C) is on record?
A: not detected

Q: What about the “inhibition of NADPH consumption” value (CapF [2]) of the same compound?
A: did not significantly inhibit

Q: For NADPH, which Kd (CapF [3]) is on record?
A: 1.6 µM
